#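 Step 1: Grow cells in 96-well plates. Step 2: Expose to compound for 48 hours at 5 concentrations. Step 3: Interpolate endpoints linearly; if unreached, use highest concentration. GI50: concentration for 50% inhibition of growth.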 Calls of active or inactive are those of the source. No stated cut-off is given here; in the data, active = GI50 up to about 1.1 µM and inactive = higher.
# Experiments:
# Assay in all cases: growth of human tumour cells (NCI), 48 h
# A498 = test system: A498
# SNB-75 = test system: SNB-75
# UACC-257 = test system: UACC-257
# RPMI-8226 = test system: RPMI-8226
# COLO 205 = test system: COLO 205
# 786-0 = test system: 786-0
# SK-MEL-5 = test system: SK-MEL-5
# EKVX = test system: EKVX
# HCT-116 = test system: HCT-116
# UACC-62 = test system: UACC-62
# HCC 2998 = test system: HCC 2998
# SF-539 = test system: SF-539
# OVCAR-5 = test system: OVCAR-5
# CCRF-CEM = test system: CCRF-CEM
# DU-145 = test system: DU-145
# NCI-H226 = test system: NCI-H226
# PC-3 = test system: PC-3
# HT-29 = test system: HT-29
# U-251 = test system: U-251
# SNB-19 = test system: SNB-19
# MDA-MB-435 = test system: MDA-MB-435
# TK-10 = test system: TK-10
# BT-549 = test system: BT-549
# ACHN = test system: ACHN
# HCT-15 = test system: HCT-15
# MOLT-4 = test system: MOLT-4
# MDA-MB-231 = test system: MDA-MB-231
# A549 = test system: A549
# CAKI-1 = test system: CAKI-1
# SR = test system: SR
# IGROV-1 = test system: IGROV-1
# SN12C = test system: SN12C
# SK-OV-3 = test system: SK-OV-3
# M14 = test system: M14
# Hs-578T = test system: Hs-578T
# Malme-3M = test system: Malme-3M
# SK-MEL-28 = test system: SK-MEL-28
# HL-60 = test system: HL-60
# NCI/ADR-RES = test system: NCI/ADR-RES
# LOX IMVI = test system: LOX IMVI
# UO-31 = test system: UO-31
# T47D = test system: T47D
# MCF7 = test system: MCF7
# SF-295 = test system: SF-295
# OVCAR-8 = test system: OVCAR-8
# KM12 = test system: KM12
# NCI-H522 = test system: NCI-H522
# SW-620 = test system: SW-620
# HOP-62 = test system: HOP-62
# NCI-H460 = test system: NCI-H460
# HOP-92 = test system: HOP-92
# OVCAR-3 = test system: OVCAR-3
# SK-MEL-2 = test system: SK-MEL-2
# K562 = test system: K562
# OVCAR-4 = test system: OVCAR-4
# RXF 393 = test system: RXF 393
# NCI-H23 = test system: NCI-H23
# SF-268 = test system: SF-268
smiles,measurement,setting,value
O=C(O)CN1CCN(CC(=O)N2CCN(C(=O)OCc3ccccc3)CC2)CCN(CC(=O)O)CCN(CC(=O)N2CCN(C(=O)OCc3ccccc3)CC2)CC1,GI50,A498,> 100 µM (inactive)
same,GI50,SNB-75,> 100 µM (inactive)
same,GI50,UACC-257,> 100 µM (inactive)
same,GI50,RPMI-8226,> 100 µM (inactive)
same,GI50,COLO 205,> 100 µM (inactive)
same,GI50,786-0,> 100 µM (inactive)
same,GI50,SK-MEL-5,> 100 µM (inactive)
same,GI50,EKVX,> 100 µM (inactive)
same,GI50,HCT-116,> 100 µM (inactive)
same,GI50,UACC-62,> 100 µM (inactive)
same,GI50,HCC 2998,> 100 µM (inactive)
same,GI50,SF-539,> 100 µM (inactive)
same,GI50,OVCAR-5,> 100 µM (inactive)
same,GI50,CCRF-CEM,> 100 µM (inactive)
same,GI50,DU-145,> 100 µM (inactive)
same,GI50,NCI-H226,> 100 µM (inactive)
same,GI50,PC-3,> 100 µM (inactive)
same,GI50,HT-29,> 100 µM (inactive)
same,GI50,U-251,> 100 µM (inactive)
same,GI50,SNB-19,> 100 µM (inactive)
same,GI50,MDA-MB-435,> 100 µM (inactive)
same,GI50,TK-10,> 100 µM (inactive)
same,GI50,BT-549,> 100 µM (inactive)
same,GI50,ACHN,> 100 µM (inactive)
same,GI50,HCT-15,> 100 µM
same,GI50,MOLT-4,> 100 µM (inactive)
same,GI50,MDA-MB-231,> 100 µM (inactive)
same,GI50,A549,> 100 µM (inactive)
same,GI50,CAKI-1,> 100 µM (inactive)
same,GI50,SR,> 100 µM (inactive)
same,GI50,IGROV-1,> 100 µM (inactive)
same,GI50,SN12C,> 100 µM (inactive)
same,GI50,SK-OV-3,> 100 µM (inactive)
same,GI50,M14,> 100 µM (inactive)
same,GI50,Hs-578T,> 100 µM (inactive)
same,GI50,Malme-3M,> 100 µM (inactive)
same,GI50,SK-MEL-28,> 100 µM (inactive)
same,GI50,HL-60,> 100 µM (inactive)
same,GI50,NCI/ADR-RES,> 100 µM (inactive)
same,GI50,LOX IMVI,> 100 µM (inactive)
same,GI50,UO-31,> 100 µM (inactive)
same,GI50,T47D,> 100 µM (inactive)
same,GI50,MCF7,> 100 µM (inactive)
same,GI50,SF-295,> 100 µM (inactive)
same,GI50,OVCAR-8,> 100 µM (inactive)
same,GI50,KM12,> 100 µM (inactive)
same,GI50,NCI-H522,> 100 µM (inactive)
same,GI50,SW-620,> 100 µM (inactive)
same,GI50,HOP-62,> 100 µM (inactive)
same,GI50,NCI-H460,> 100 µM (inactive)
same,GI50,HOP-92,> 100 µM (inactive)
same,GI50,OVCAR-3,> 100 µM (inactive)
same,GI50,SK-MEL-2,> 100 µM (inactive)
same,GI50,K562,> 100 µM (inactive)
same,GI50,OVCAR-4,> 100 µM (inactive)
COc1ccc(-n2c(C)nc3ccc(NC(=S)Nc4ccccc4)cc3c2=O)cc1,GI50,A498,> 100 µM (inactive)
same,GI50,SNB-75,> 100 µM (inactive)
same,GI50,RXF 393,57.1 µM (inactive)
same,GI50,UACC-257,51.8 µM (inactive)
same,GI50,RPMI-8226,28.6 µM (inactive)
same,GI50,NCI-H23,52.7 µM (inactive)
same,GI50,COLO 205,64.1 µM (inactive)
same,GI50,786-0,> 100 µM (inactive)
same,GI50,SK-MEL-5,37.4 µM (inactive)
same,GI50,EKVX,65.2 µM (inactive)
same,GI50,HCT-116,39.2 µM (inactive)
same,GI50,UACC-62,61.4 µM (inactive)
same,GI50,HCC 2998,26.2 µM (inactive)
same,GI50,OVCAR-5,> 100 µM (inactive)
same,GI50,DU-145,> 100 µM (inactive)
same,GI50,NCI-H226,43.2 µM (inactive)
same,GI50,PC-3,35.7 µM (inactive)
same,GI50,HT-29,62.4 µM (inactive)
same,GI50,U-251,> 100 µM (inactive)
same,GI50,SNB-19,> 100 µM (inactive)
same,GI50,MDA-MB-435,61.5 µM (inactive)
same,GI50,TK-10,> 100 µM (inactive)
same,GI50,BT-549,70 µM (inactive)
same,GI50,ACHN,65.9 µM (inactive)
same,GI50,HCT-15,76.2 µM
same,GI50,MOLT-4,32.1 µM (inactive)
same,GI50,MDA-MB-231,> 100 µM (inactive)
same,GI50,CAKI-1,> 100 µM (inactive)
same,GI50,SR,60.7 µM (inactive)
same,GI50,IGROV-1,> 100 µM (inactive)
same,GI50,SN12C,> 100 µM (inactive)
same,GI50,Hs-578T,> 100 µM (inactive)
same,GI50,Malme-3M,> 100 µM (inactive)
same,GI50,SF-268,> 100 µM (inactive)
same,GI50,SK-MEL-28,96.2 µM (inactive)
same,GI50,HL-60,53.3 µM (inactive)
same,GI50,NCI/ADR-RES,> 100 µM (inactive)
same,GI50,LOX IMVI,43.7 µM (inactive)
same,GI50,UO-31,> 100 µM (inactive)
same,GI50,T47D,44.6 µM (inactive)
same,GI50,MCF7,43.2 µM (inactive)
same,GI50,SF-295,> 100 µM (inactive)
same,GI50,OVCAR-8,> 100 µM (inactive)
same,GI50,KM12,72.3 µM (inactive)
same,GI50,NCI-H522,56.8 µM (inactive)
same,GI50,SW-620,> 100 µM (inactive)
same,GI50,HOP-62,> 100 µM (inactive)
same,GI50,NCI-H460,12.4 µM (inactive)
same,GI50,OVCAR-3,34.8 µM (inactive)
same,GI50,SK-MEL-2,56.1 µM (inactive)
same,GI50,K562,51.6 µM (inactive)
same,GI50,OVCAR-4,86.1 µM (inactive)

# — ChEMBL document CHEMBL1201862, “PubChem BioAssay data set” (2004)
